The nature of one series: in vitro. As to conditions: dog.
The test system of series [1] is influenza A/New York/469/2004-like flu (H3N2) virus. Kind of series: in vitro. As to conditions: dog.
Series [2] shares this test system. Kind of series: microbe, parasite or virus in culture. As to conditions: H3N2, MDCK, read-out: EC50 (μM), H3N2.
The mark [3] stands for this setting: CC50 (μM), Table 4 (H3N2 series), MDCK cells.

Turning to `COc1cc2oc(-c3ccc(Br)cc3)cc(=O)c2c(OC)c1OC` [Compound 2m, 2-(4-Bromophenyl)-5,6,7-trimethoxy-4H-chromen-4-one], the melting point was in the range of 165 to 166 °C. The CC50 in “in vitro” (setting [3]) is greater than 300 µM.

Regarding `O=c1cc(-c2ccc(Br)cc2)oc2cc(O)c(O)c(O)c12` [Compound 6c, 2-(4-Bromophenyl)-5,6,7-trihydroxy-4H-chromen-4-one], the selectivity ratio at 24 h in series [1] is greater than 8.4. This molecule also gave a CC50 in the series “in vitro” (setting [3]) greater than 300 µM. Moreover, the EC50 in series [2] was 35.9 µM.

Turning to `COc1cc2oc(-c3cccc(Br)c3)cc(=O)c2c(O)c1OC` [Compound 4b, 2-(3-Bromophenyl)-5-hydroxy-6,7-dimethoxy-4H-chromen-4-one], the melting point lay in the range of 188 to 189 °C. Also, the selectivity ratio at 24 h in series [1] was found to be 0.5. Further, the CC50 in the series “in vitro” (setting [3]) came out at 66.5 µM. Further, the EC50 in series [2] was 133 µM.

Take `O=C(O)[C@H]1O[C@@H](Oc2cc3oc(-c4ccccc4)cc(=O)c3c(O)c2O)[C@H](O)[C@@H](O)[C@@H]1O` [Baicalin, reference compound]: the selectivity ratio at 24 h in series [1] is greater than 2.9. Moreover, the CC50 in “in vitro” (setting [3]) is greater than 300 µM. Moreover, the EC50 in series [2] turned out to be 104 µM.

Consider `COc1cc2oc(-c3ccccc3Br)cc(=O)c2c(OC)c1OC` [Compound 2k, 2-(2-Bromophenyl)-5,6,7-trimethoxy-4H-chromen-4-one], for which the melting point was in the range of 122 to 123 °C. Also, the selectivity ratio at 24 h in series [1] was found to be 2. In the series “in vitro” (setting [3]), this molecule came in with a CC50 of 128 µM. Besides, the EC50 in series [2] is 64.1 µM.

In the case of `COc1cc2oc(-c3ccc(Br)cc3)cc(=O)c2c(O)c1OC` [Compound 4c, 2-(4-Bromophenyl)-5-hydroxy-6,7-dimethoxy-4H-chromen-4-one], the melting point fell in the range of 206 to 208 °C. The CC50 in “in vitro” (setting [3]) was greater than 300 µM.

As to `COc1c(O)cc2oc(-c3cccc(Br)c3)cc(=O)c2c1O` [Compound 5b, 2-(3-Bromophenyl)-5,7-dihydroxy-6-methoxy-4H-chromen-4-one], the selectivity ratio at 24 h in series [1] was greater than 17.3. Moreover, in “in vitro” (setting [3]), the CC50 was greater than 300 µM. Further, the EC50 in series [2] amounted to 17.3 µM.

As for `NC(=O)c1ncn([C@@H]2O[C@H](CO)[C@@H](O)[C@H]2O)n1` [Ribavirin, reference compound], the selectivity ratio at 24 h in series [1] is greater than 11.7. In “in vitro” (setting [3]), this molecule registered a CC50 greater than 300 µM. The EC50 in series [2] was found to be 25.6 µM.

Regarding `COc1cc2oc(-c3cccc(Br)c3)cc(=O)c2c(OC)c1OC` [Compound 2l, 2-(3-Bromophenyl)-5,6,7-trimethoxy-4H-chromen-4-one], the melting point fell in the range of 190 to 191 °C. Further, in series [1], the selectivity ratio at 24 h worked out at 0.5. In “in vitro” (setting [3]), this molecule yielded a CC50 of 64.1 µM. Also, the EC50 in series [2] stood at 128 µM.

As for `COc1c(O)cc2oc(-c3ccccc3Br)cc(=O)c2c1O` [Compound 5a, 2-(2-Bromophenyl)-5,7-dihydroxy-6-methoxy-4H-chromen-4-one], the selectivity ratio at 24 h in series [1] was greater than 17.3. This molecule had a CC50 in the series “in vitro” (setting [3]) greater than 300 µM. Moreover, the EC50 in series [2] was 17.3 µM.

Molecule `CCOC(=O)C1=C[C@@H](OC(CC)CC)[C@H](NC(C)=O)[C@@H](N)C1` [oseltamivir, reference compound] came in with a CC50 in the series “in vitro” of 320 µM.

With `O=c1cc(-c2ccccc2Br)oc2cc(O)c(O)c(O)c12` [Compound 6a, 2-(2-Bromophenyl)-5,6,7-trihydroxy-4H-chromen-4-one], the melting point is 249 to 251 °C. The selectivity ratio at 24 h in series [1] was greater than 4.2. This molecule also gave a CC50 in the series “in vitro” (setting [3]) greater than 300 µM. The EC50 in series [2] worked out at 71.8 µM.

In the case of `COc1c(O)cc2oc(-c3ccc(Br)cc3)cc(=O)c2c1O` [Compound 5c, 2-(4-Bromophenyl)-5,7-dihydroxy-6-methoxy-4H-chromen-4-one], the melting point lay within 275 to 276 °C. Moreover, the selectivity ratio at 24 h in series [1] was greater than 8.7. The same molecule yielded a CC50 in “in vitro” (setting [3]) greater than 300 µM. In series [2], the EC50 amounted to 34.5 µM.

In the case of `COc1cc2oc(-c3ccccc3Br)cc(=O)c2c(O)c1OC` [Compound 4a, 2-(2-Bromophenyl)-5-hydroxy-6,7-dimethoxy-4H-chromen-4-one], the melting point was in the range of 221 to 222 °C. In series [1], the selectivity ratio at 24 h worked out at 1.5. The CC50 in “in vitro” (setting [3]) came to 200 µM. In series [2], the EC50 amounted to 133 µM.

`O=c1cc(-c2ccccc2)oc2cc(O)c(O)c(O)c12` [Baicalein, reference compound]: in series [1], the selectivity ratio at 24 h is greater than 3.3. In addition, the CC50 in “in vitro” (setting [3]) is greater than 300 µM. Besides, the EC50 in series [2] turned out to be 92.3 µM.

Molecule `O=c1cc(-c2cccc(Br)c2)oc2cc(O)c(O)c(O)c12` [Compound 6b, 2-(3-Bromophenyl)-5,6,7-trihydroxy-4H-chromen-4-one] came in with a melting point of 255 to 256 °C. Also, in series [1], the selectivity ratio at 24 h was greater than 8.4. For the same molecule, in “in vitro” (setting [3]), the CC50 is greater than 300 µM. In series [2], the EC50 worked out at 35.9 µM.

The term melting point denotes the temperature of the solid-liquid transition. One may read the EC50 as the concentration at which the effect is half-maximal.

Source of the values: patent US20150329515A1, “COMPOSITION AND METHOD FOR TREATING OR PREVENTING INFLUENZA VIRUS INFECTION” (National Defense Medical Center, priority 2014, published 2015).
